The values that follow come from US4525358A, “2-[4-(Diphenylmethyl)-1-piperazinyl]-acetic acids and their amides” (UCB Pharmaceuticals, Inc., priority 1981, dated 1985).

In data set [1] the test system is bronchospasms induced by serotonin. Put plainly: inhibition of serotonin-induced bronchospasms (Konzett and Roessler), spasmolytic activity. In kind it is in vivo, guinea pig. The conditions noted are these: for ED50: Cavia porcellus, iv, read-out: ID 50, inhibition of bronchospasms induced by serotonin. The protocol:
(§1) Anaesthetized and curarized guinea pigs are subjected to artificial ventilation. The endotracheal pressure is recorded. Repetitive bronchial spasms are induced by successive and progressive intravenous injections of serotonin and histamine, respectively. The test compounds are also administered intravenously.

Another data set relates to mice. The conditions noted are these: intraperitoneal, two animals out of three.
Data set [2] has as its system bronchospasms induced by histamine. The data set is described as follows: inhibition of histamine-induced bronchospasms (Konzett and Roessler), antihistaminic activity. In kind it is in vivo, guinea pig. The conditions noted are these: for ED50: Cavia porcellus, iv, read-out: ID 50, inhibition of bronchospasms induced by histamine. As for the experimental part: as §1

Data set [3] has as its system passive cutaneous anaphylaxis. The data set is described as follows: passive cutaneous anaphylaxis test (PCA), antiallergic activity. In kind it is in vivo. The conditions noted are these: rats, per os; for ED50: Rattus norvegicus, po, 15 minutes before allergen, read-out: ID 50 per os (reduction of 50% of the surface area of the colored spot). As for the experimental part: This activity is determined in rats by means of the passive cutaneous anaphylaxis test (PCA) (see J. GOOSE and A. M. J. N. BlAIR, Immunology, 16, (1969), 749-760; and […] and D. ROEMER, Arzneimittel-Forschung, 28, (5), (1978), 770-782). Female rats are used, the sides of which have been partly shaved. Into the zone thus shaved there is injected intradermally, for passive sensitization of the animals, 0.05 ml of IGE antiovalbumin serum at a dilution such that, at the time of the PCA test, a distinct spot with a surface area of about 100 mm^2 appears at the point of injection. […] At the point of intradermal injection, there appears a distinct blue spot, the surface of which is measured. In order to test the activity of the compounds according to the present invention, the procedure is carried out in the same manner; however, the test compound is administered orally 72 hours after injection of the serum; 15 minutes after this administration, 0.25 ml of the solution of the allergen is injected intravenously; 30 minutes after the administration of the allergen, the surface of the blue spot is measured.

Data set [4] concerns general behaviour of mice. Put plainly: general behaviour of mice (Irwin's test), tranquilization. In kind it is in vivo.
For data set [5] the following is noted: Belgian Patent Specification No. 763,609; cited from earlier work.
For data set [6] the following is noted: J. med. Chem. 11 (1968), 390-391; cited from earlier work.
Setting [7] is: guinea pig, intravenous, serotonin.
Where [8] appears, read: guinea pig, intravenous, histamine.

Read-outs that look alike come from different tables or passages of the source. A value given as a limit tells only on which side of the number the result lay.

Consider `NC(=O)COCCN1CCN(C(c2ccccc2)c2ccccc2)CC1` [A, 2-[2-[4-(Diphenylmethyl)-1-piperazinyl]ethoxy]-acetamide], for which the ED50 in data set [1] (setting [7]) came out at 0.78 µmol/kg; in data set [2] (setting [8]), 0.23 µmol/kg. Besides, in the data set on mice, the “Lethal dose (2/3)” value came to 255 mg/kg.
Regarding `NC(=O)COCCN1CCN(C(c2ccccc2)c2ccc(Cl)cc2)CC1` (centres unmarked) [B, 2-[2-[4-[(4-chlorophenyl)phenylmethyl]-1-piperazinyl]ethoxy]-acetamide], the ED50 in data set [3] worked out at 36.5 µmol/kg; in data set [1] (setting [7]), 0.88 µmol/kg; in data set [2] (setting [8]), 0.45 µmol/kg. The “Tranquilizing dose (first manifestations of tranquilization)” value (“Tranquilizing dose” for short) in data set [4] (male mice, intraperitoneal) is 38.7 mg/kg. The “Lethal dose (2/3)” value in the data set on mice is 232 mg/kg.
For `NC(=O)COCCN1CCN(C(c2ccccc2)c2ccc(F)cc2)CC1` (centres unmarked) [C, 2-[2-[4-[(4-fluorophenyl)phenylmethyl]-1-piperazinyl]ethoxy]-acetamide] the same measures were 18.9 µmol/kg, 0.94 µmol/kg, 0.71 µmol/kg, 115 mg/kg and 386 mg/kg.
Consider `NC(=O)CN1CCN(C(c2ccccc2)c2ccccc2)CC1` [Compound 1, 2-[4-(diphenylmethyl)-1-piperazinyl]-acetamide, reference compound], for which, in data set [3], the ED50 is greater than 320 µmol/kg and the “antiallergic activity (PCA), in words” value is given as “of little interest”. For the same compound, in data set [1] (setting [7]), the ED50 is 77 µmol/kg and the “activity with regard to bronchospasms induced by serotonin (antispasmodic), in words” value (“activity with regard … (antispasmodic), in words” for short) is on record as “considerbly less active”. Further, the diuretic activity entry in data set [5] is on record as “possesses a diuretic activity”. For the same compound, in data set [2] (setting [8]), the ED50 came to 2.1 µmol/kg and the “activity with regard to bronchospasms induced by histamine (antihistaminic), in words” value (“activity … (antihistaminic), in words” below) is “considerbly less active”.
For the compound `NC(=O)CN1CCN(C(c2ccccc2)c2ccc(Cl)cc2)CC1` (centres unmarked) [Compound 2, 2-[4-[(4-chlorophenyl)phenylmethyl]-1-piperazinyl]-acetamide, reference compound], in data set [6], the “activity as a hypocholesteremic agent” value is “not very encouraging”. Also, in data set [3], the ED50 was greater than 320 µmol/kg and the “antiallergic activity (PCA), in words” value is recorded as “of little interest”. Besides, in data set [1] (setting [7]), the ED50 amounted to 11 µmol/kg and the “activity with regard … (antispasmodic), in words” value is recorded as “considerbly less active”. In addition, in data set [2] (setting [8]), the ED50 came to 3.1 µmol/kg and the “activity … (antihistaminic), in words” value was “considerbly less active”.
Regarding `O=C(O)CN1CCN(C(c2ccccc2)c2ccccc2)CC1` [Compound 3, 2-[4-(diphenylmelthyl)-1-piperazinyl]-acetic acid, reference compound], in data set [3], the ED50 was greater than 320 µmol/kg and the “antiallergic activity (PCA), in words” value is reported as “of little interest”. In data set [1] (setting [7]), the ED50 was greater than 32 µmol/kg and the “activity with regard … (antispasmodic), in words” value is “considerbly less active”. In addition, in data set [2] (setting [8]), the ED50 was determined as 5 µmol/kg and the “activity … (antihistaminic), in words” value is “considerbly less active”.
Turning to `O=C(O)CN1CCN(C(c2ccccc2)c2ccc(Cl)cc2)CC1` (centres unmarked) [Compound 4, reference compound], in data set [3], the ED50 was greater than 320 µmol/kg and the “antiallergic activity (PCA), in words” value was “of little interest”. Also, in data set [1] (setting [7]), the ED50 is greater than 32 µmol/kg and the “activity with regard … (antispasmodic), in words” value is on record as “considerbly less active”. Further, in data set [2] (setting [8]), the ED50 is 7.8 µmol/kg and the “activity … (antihistaminic), in words” value is on record as “considerbly less active”.
Turning to `Cl.Cl.NC(=O)COCCN1CCN(C(c2ccccc2)c2ccccc2Cl)CC1` (centres unmarked) [D, 2-[2-[4-[(2-chlorophenyl)phenylmethyl]-1-piperazinyl]ethoxy]-acetamide dihydrochloride], the values for the ED50 in data set [1] (setting [7]) and in data set [2] (setting [8]) were 1.1 µmol/kg and 0.63 µmol/kg, respectively. Besides, the “Tranquilizing dose” value in data set [4] (male mice, intraperitoneal) is reported as greater than 460 mg/kg. Besides, in the data set on mice, the “Lethal dose (2/3)” value turned out to be 460 mg/kg.
As to `COc1ccc(C(c2ccccc2)N2CCN(CCOCC(N)=O)CC2)cc1.Cl.Cl` (centres unmarked) [E, 2-[2-[4-[(4-methoxyphenyl)phenylmethyl]-1-piperazinyl]ethoxy]-acetamide dihydrochloride], the figures for the ED50 in data set [1] (setting [7]) and in data set [2] (setting [8]) were 10 µmol/kg and 0.67 µmol/kg, respectively. Besides, the “Tranquilizing dose” value in data set [4] (male mice, intraperitoneal) came out at 136 mg/kg. Further, the “Lethal dose (2/3)” value in the data set with mice is 456 mg/kg.
Take `Cl.Cl.NC(=O)COCCOCCN1CCN(C(c2ccccc2)c2ccccc2)CC1` [F, 2-[2-[2-[4-(Diphenylmethyl)-1-piperazinyl]ethoxy]ethoxy]-acetamide dihydrochloride]: the ED50 in data set [3] is 10.6 µmol/kg; in data set [1] (setting [7]), 0.32 µmol/kg; in data set [2] (setting [8]) it was 0.25 µmol/kg. In addition, the “Tranquilizing dose” value in data set [4] (male mice, intraperitoneal) was found to be 94 mg/kg. Besides, in the data set with mice, the “Lethal dose (2/3)” value came out at 282 mg/kg.
Take `Cl.Cl.NC(=O)COCCOCCN1CCN(C(c2ccccc2)c2ccc(Cl)cc2)CC1` (centres unmarked) [G, 2-[2-[2-[4-[(4-chlorophenyl)phenylmethyl]-1-piperazinyl]ethoxy]ethoxy]-acetamide dihydrochloride]: the ED50 in data set [1] (setting [7]) came out at 0.66 µmol/kg; in data set [2] (setting [8]), 1.14 µmol/kg. Further, the “Tranquilizing dose” value in data set [4] (male mice, intraperitoneal) is recorded as 34 mg/kg. Also, the “Lethal dose (2/3)” value in the data set with mice stood at 339 mg/kg.
Regarding `O=C([O-])COCCN1CCN(C(c2ccccc2)c2ccc(Cl)cc2)CC1.[K+]` (centres unmarked) [H, potassium 2-[2-[4-[(4-chlorophenyl)phenylmethyl]-1-piperazinyl]ethoxy]-acetate], the ED50 in data set [1] was 7 µmol/kg; in data set [2] it was 0.23 µmol/kg. In addition, the “Tranquilizing dose” value in data set [4] (male mice, intraperitoneal) amounted to 46.2 mg/kg.
Turning to `OCCOCCN1CCN(C(c2ccccc2)c2ccc(Cl)cc2)CC1` (centres unmarked) [Hydroxyzine, 2-[2-[4-[(4-chlorophenyl)phenylmethyl]-1-piperazinyl]-ethoxy]-ethanol, reference compound], the “Tranquilizing dose” value in data set [4] (mouse, in vivo, ip) is listed as 27 mg/kg.
For `O=C(O)COCCN1CCN(C(c2ccccc2)c2ccc(Cl)cc2)CC1` (centres unmarked) [I, 2-[2-[4-[(4-chlorophenyl)phenylmethyl]-1-piperazinyl]ethoxy]-acetic acid], the figures for the ED50 in data set [1] (setting [7]) and in data set [2] (setting [8]) were 9.44 µmol/kg and 0.205 µmol/kg, respectively.
As to `O=C(O)COCCN1CCN(C(c2ccccc2)c2ccc(Cl)cc2)CC1` (centres unmarked) [J, 2-[2-[4-[(4-chlorophenyl)phenylmethyl]-1-piperazinyl]ethoxy]-acetic acid], the “ID 50, inhibition of bronchospasms induced by serotonin” value in data set [1] (setting [7]) came out at 7.3 µmol/kg. In addition, in data set [4] (male mice, intraperitoneal), the “Tranquilizing dose” value was 138 mg/kg. In data set [2] (guinea pig, intravenous, 1 μmol/kg single dose, after 5 hours), this compound yielded an antihistaminic activity retained of 100%. The “ID 50, inhibition of bronchospasms induced by histamine” value in data set [2] (setting [8]) turned out to be 0.20 µmol/kg.
In the case of `O=C(O)COCCN1CCN(C(c2ccccc2)c2ccccc2)CC1` [K, 2-[2-[4-(diphenylmethyl)-1-piperazinyl]ethoxy]-acetic acid], the ED50 amounted to 9.5 µmol/kg in data set [1] (setting [7]) and 0.093 µmol/kg in data set [2] (setting [8]). Moreover, in data set [4] (male mice, intraperitoneal), the “Tranquilizing dose” value amounted to 106 mg/kg. Further, the “Lethal dose (2/3)” value in the data set on mice is listed as 708 mg/kg.
Regarding `Cl.Cl.O=C(O)COCCOCCN1CCN(C(c2ccccc2)c2ccccc2)CC1` [L, 2-[2-[2-[4-(diphenylmethyl)-1-piperazinyl]ethoxy]ethoxy]-acetic acid dihydrochloride], the ED50 was determined as 5.69 µmol/kg in data set [1] (setting [7]) and 0.39 µmol/kg in data set [2] (setting [8]). Also, in data set [4] (male mice, intraperitoneal), the “Tranquilizing dose” value was found to be 141 mg/kg. Also, the “Lethal dose (2/3)” value in the data set on mice is recorded as 942 mg/kg.
Take `Cl.Cl.O=C(O)COCCOCCN1CCN(C(c2ccccc2)c2ccc(Cl)cc2)CC1` (centres unmarked) [M, 2-[2-[2-[4-[(4-chlorophenyl)phenylmethyl]-1-piperazinyl]ethoxy]ethoxy]-acetic acid dihydrochloride]: the results for the ED50 in data set [1] (setting [7]) and in data set [2] (setting [8]) were 10 µmol/kg and 0.79 µmol/kg, respectively. The “Tranquilizing dose” value in data set [4] (male mice, intraperitoneal) was 505 mg/kg. For the same compound, the “Lethal dose (2/3)” value with mice is on record as 505 mg/kg.
In the case of `O.O=C(O)COCCN1CCN(C(c2ccccc2)c2ccc(F)cc2)CC1` (centres unmarked) [N, 2-[2-[4-[(4-fluorophenyl)phenylmethyl]-1-piperazinyl]ethoxy]-acetic acid hydrate], the ED50 amounted to 10.2 µmol/kg in data set [3], 2.1 µmol/kg in data set [1] (setting [7]) and 0.08 µmol/kg in data set [2] (setting [8]). Further, the “Tranquilizing dose” value in data set [4] (male mice, intraperitoneal) came out at 372 mg/kg. Moreover, in the data set on mice, the “Lethal dose (2/3)” value is given as 372 mg/kg.
As for `O=C1Nc2ccc(Cl)cc2C(c2ccccc2)=NC1O` (centres unmarked) [Oxazepam, 7-chloro-1,3-dihydro-3-hydroxy-5-phenyl:2H-1,4-benzodiazepin-2-one, reference compound], in data set [4] (male mice, intraperitoneal), the “Tranquilizing dose” value came to 2.6 mg/kg.
For the compound `Cn1c(=O)c2[nH]cnc2n(C)c1=O` [Theophylline, reference compound], the ED50 in data set [1] and in data set [2] was 10 µmol/kg in each case.
